Patent US5602184A, “Monoterpenes, sesquiterpenes and diterpenes as cancer therapy” (priority 1993, dated 1997)
Where “and” joins values, the source holds several entries; their conditions need not be identical. Equal values may be shown once. Entries after “also recorded” stand apart in the source; their conditions may differ. Read-outs that look alike come from different tables or passages of the source. Blank lines part the entries; values can stand above or below the compound they belong to.

Legend:
[1] = tested on: PC3 human prostate carcinoma; experiment: In vitro antitumor activity of terpenes against PC3 (seven day exposure); type: cell-based; details: for activity compared with farnesol (standard): FIGS. 7-9, relative to farnesol; for IC50: Homo sapiens, 168 h, PC3, seven day exposure; for activity against the human prostate cancer cells: FIGS. 1-6, growth as % of untreated control
Method: A human prostate carcinoma cell line, PC3, was obtained from the American Tissue Culture Collection, Accession No. CRL 1435. The PC3 cells were cultured in RPMI 1640 medium enriched with 10% fetal calf serum (FCS). The medium and the FCS are both available from GIBCO BRL Life Technologies, Inc., 8400 Helgeman Lane, Gaithersburg, Md. 20877.
Terpenes were exposed to the PC3 cells as follows. On day 0, seed PC3 cells at about 1,000 cells per well were placed in each well of a 96-well tissue culture plate along with […] (ml) of culture medium. On day 1, various concentrations of each of the selected terpenes were added. A serial dilution of each terpene was made in dimethyl sulfoxide (DMSO). All of the initial concentrations were about 200 times the desired concentration. Each dose was further diluted 100 times with culture medium. 0.1 ml of each dose was added per well to the tissue culture plate. The plates were incubated at 37° Celsius (C) under 5% carbon dioxide (CO2) for seven days. The results are depicted graphically in FIGS. 1-9 and some of the concentrations which inhibited cell growth to about 50% of the control growth (IC50) are shown in Table 1.

prostate tumor cells = experiment: Apoptosis and nuclear fragmentation (DNA ladder gel); type: cell-based; details: for DNA ladder indicative of apoptosis: 2% agarose minigel
Method: The invention examined the effect on prostate tumor cells of treatment with limonene, farnesol and phytol. […] The classic signature of apoptosis is the cleavage of nuclear DNA into nucleosomal subunits. On gels, this gives rise to the appearance of a ladder as nucleosomal units are sequentially cleaved from the DNA.
After drug exposure, cells were lysed and the high molecular DNA removed by centrifugation. The aqueous phase was treated with proteinase K to digest proteins. After a phenol/chloroform extraction, the DNA was precipitated with salt and ethanol. The pellet was dissolved in deionized water and treated with 500 μg/ml RNase A. The DNA was run on a 2% agarose minigel.

[2] = tested on: AD5 osteosarcoma (high ras); experiment: Effect of limonene on tumor cell proliferation, AD5; type: cell-based; details: Homo sapiens, 96 h; DMEM; three to four days of continuous treatment
Method: (§1) Limonene (Sigma) was evaluated for its effect on proliferation of various tumor cell lines. The cell lines included U87 and A172 (both are glioblastomas), HOS (a low ras osteosarcoma), AD5 (a high ras osteosarcoma), and HT29 (a high ras colon carcinoma). An activated or high ras means that the ras oncogene has mutated to a form which can transform normal cells to malignant cells. The glioblastoma cells were grown in RPMI 1640 culture medium and the other three cell lines were grown in Dulbecco's Modified Eagle's Medium (DMEM, available from GIBCO).
(§2) Limonene was added to the growth medium, which was supplemented with 10% FCS, and incubated at 37° C. for 24 hours. The medium was added to human tumor cells plated the previous day in 60 millimeter (mm) tissue culture (TC) dishes. After three to four days of continuous treatment, the cells were detached by trypsinization and counted using a hemocytometer (Hy-Lite Counting Chamber from Fisher Scientific, 711 Forbes Ave., Pittsburgh, Pa. 15219-4785). Cell viability was determined by a trypin blue exclusion method as described in detail in the manufacturer's instructions.

[3] = to compounds having terminal hydroxy groups; cited from earlier work
[4] = tested on: tumor cell lines U87, A172, HOS, AD5, HT29; experiment: Cell viability of surviving cells in the proliferation test (exclusion method); type: cell-based, human; details: of the approximately 50% of cells which survived (at IC50)
Method: as §2

U87 glioblastoma = experiment: Effect of limonene on tumor cell proliferation, U87; type: cell-based; details: Homo sapiens, 96 h; RPMI 1640; three to four days of continuous treatment
Method: as §1, §2

[5] = tested on: HT29 colon carcinoma (high ras); experiment: Effect of limonene on tumor cell proliferation, HT29; type: cell-based; details: Homo sapiens, HT-29, 96 h; DMEM; three to four days of continuous treatment
Method: as §1, §2

[6] = tested on: HOS osteosarcoma (low ras); experiment: Effect of limonene on tumor cell proliferation, HOS; type: cell-based; details: Homo sapiens, 96 h; DMEM; three to four days of continuous treatment
Method: as §1, §2

[7] = tested on: AD5 human osteosarcoma cell line; experiment: Effect of limonene on radiation sensitivity of tumor cells; type: cell-based; details: 3 mM limonene; FIG. 10
Method: An activated ras oncogene makes tumor cells resistant to radiation therapy. The AD5 human osteosarcoma cell line is an example of such a cell line resistant to radiation by virtue of an activated ras oncogene. AD5 cells were cultivated as described in Example 2. Limonene was prepared in various concentrations also as described in Example 2. […] This dose refers to the dose that reduces the number of surviving cells to about 37% of the control cells. Gy (gray) is an international metric unit for an absorbed dose of radiation. One Gy equals one Joule/kg.

[8] = tested on: PC3 human prostate carcinoma; experiment: In vivo antitumor activity of d-limonene against PC3 in nude mice; parameters: species or system nude mice (human PC3 tumor); details: gavage once daily Monday through Friday for two weeks
Method: (§3) Nude mice were obtained from Cancer Research Facility in Frederick, Md. The strain name is Athymic MCR-nude. PC3 cells were transplanted into both the right and left flanks of nude mice and allowed to grow until the tumor size reached the volume of approximately 200-300 cubic mm (mm^3). At this time, five mice bearing ten tumors total were allocated to each group.
(§4) The drug or vehicle alone were administered by gavage once daily Monday through Friday for two weeks. The control group received olive oil at a dose of 0.1 cubic centimeters (cc) per ten grams (gm) of body weight. […] Both body weight and tumor volume were measured daily.

A172 glioblastoma = experiment: Effect of limonene on tumor cell proliferation, A172; type: cell-based; details: Homo sapiens, A 172, 96 h; RPMI 1640; three to four days of continuous treatment
Method: as §1, §2

[9] = Tolerability and body weight of nude mice treated with limonene; type: in vivo
Method: as §3, §4

[10] = tested on: PC3 human prostate carcinoma; experiment: In vivo antitumor activity of phytol against PC3 in nude mice; parameters: species or system nude mice (human PC3 tumor)
Method: as §3
(§5) The drug or vehicle alone were administered by gavage once daily Monday through Friday for two weeks. The control group received olive oil at a dose of 0.1 cubic centimeters (cc) per ten grams (gm) of body weight. Other groups received the same volume of olive oil with limonene added to give a daily dose of limonene of 0.1, 1.0 or 2.0 […]. Both body weight and tumor volume were measured daily.
(§6) The experimental procedure of Example 5 was followed except that phytol was used in place of limonene. […] The results are depicted in FIG. 13 which plots the percent change of tumor volume versus the number of days after inoculation of the nude mice with […] tumor cells.

[11] = parameters: species or system nude mice; details: mouse, in vivo
Method: as §3, §5, §6

SMILES: CC(C)c1ccc(C=O)cc1 [4-isopropylbenzaldehyde]
activity compared with farnesol (standard) [1]: less active

SMILES: CC(C)c1ccc(C(=O)O)cc1 [4-isopropylbenzoic acid]
activity compared with farnesol (standard) [1]: less active

SMILES: CC(C)c1ccc(CO)cc1 [4-isopropylbenzylalcohol]
activity compared with farnesol (standard) [1]: less active

SMILES: O=C(O)CCCCCCCCCCCCCCCO [16-hydroxyhexadecanoic acid]
activity compared with farnesol (standard) [1]: less active

IC50 [1]: 147 µM and 21 µg/mL
SMILES: C=CC(=C)CCC=C(C)C [beta-myrcene]

IC50 [1]: 17 µM and 3 µg/mL
SMILES: CC(C)=CCCC(C)=CC=O [citral]
activity against the human prostate cancer cells [1]: favorable activity

SMILES: CC(C)=CCCC(C)CC=O (stereo not drawn) [citronellal]
activity compared with farnesol (standard) [1]: less active

SMILES: CC(C)=CCCC(C)CC(=O)O (stereo not drawn) [citronellic acid]
activity compared with farnesol (standard) [1]: less active

SMILES: CC(C)=CCC[C@@H](C)CCO [d-citronellol]
activity compared with farnesol (standard) [1]: less active

SMILES: C=CC(C)CCCC(C)(C)O (stereo not drawn) [dihydromyrcenol]
activity compared with farnesol (standard) [1]: less active

IC50 [1]: 85.6 µM and 19 µg/mL
SMILES: CC(C)=CCC/C(C)=C/CC/C(C)=C/CO [farnesol, trans, trans-farnesol]
mode of cell death (prostate tumor cells): apoptosis, not necrosis
tumor cell death (not cytostasis) (prostate tumor cells): tumor cell death (not cytostasis) was observed
DNA ladder indicative of apoptosis (prostate tumor cells): a classic DNA ladder indicative of apoptosis has been noted; also recorded: classic DNA ladders
activity against the human prostate cancer cells [1]: favorable activity

SMILES: CC(C)=CCC/C(C)=C/CC/C(C)=C/C(=O)O [farnesylic acid]
activity against the human prostate cancer cells [1]: favorable activity

IC50 [1]: 10.5 µM and 3 µg/mL
SMILES: CC(C)=CCC/C(C)=C/CC/C(C)=C/CC/C(C)=C/CO [geranylgeraniol]
activity against the human prostate cancer cells [1]: favorable activity

SMILES: C=C(C)[C@H]1CC=C(C)CC1 [limonene, d-Limonene]
IC50 [2]: 4.8 ± 0.6 mM
metabolism in vivo [3]: rapidly metabolized
cell viability [4]: > 95%
IC50 (U87 glioblastoma): 2.1 ± 0.4 mM
mode of cell death (prostate tumor cells): apoptosis, not necrosis
tumor cell death (not cytostasis) (prostate tumor cells): tumor cell death (not cytostasis) was observed
DNA ladder indicative of apoptosis (prostate tumor cells): a classic DNA ladder indicative of apoptosis has been noted; also recorded: classic DNA ladders
IC50 [1]: 217 µM and 30 µg/mL
IC50 [5]: 4.5 ± 0.5 mM
IC50 [6]: 3 ± 0.3 mM
effect on radiation dose response curve [7]: alters both the shoulder and the dose (Do) of the radiation dose response curve
rate of tumor growth vs control group ([8]; 0.1 gm/kg): the same
rate of tumor growth vs control group ([8]; 1.0 gm/kg): the same
rate of tumor growth vs control group ([8]; 2.0 gm/kg): approximately half of that in the control group
IC50 (A172 glioblastoma): 1.5 ± 0.5 mM
tolerability ([9]; gavage, two weeks, up to 2.0 gm/kg): appeared to tolerate the drug well
loss in weight ([9]; mouse, in vivo): not a statistically significant loss in weight

SMILES: CC(C)=CCC/C(C)=C\CO [nerol]
activity compared with farnesol (standard) [1]: less active

IC50 [1]: 90.1 µM and 20 µg/mL
SMILES: C=CC(C)(O)CCC=C(C)CCC=C(C)C (stereo not drawn) [nerolidol]
activity against the human prostate cancer cells [1]: favorable activity

SMILES: C=C(C)C1CC=C(C=NO)CC1 (stereo not drawn) [perillartine]
activity compared with farnesol (standard) [1]: less active

SMILES: C/C(=C\CO)CCC[C@H](C)CCC[C@H](C)CCCC(C)C [phytol]
tumor production during the treatment period ([10]; during the treatment period): negligible tumor production
tumor volume as compared to the control animals ([10]; phytol by procedure of Example 5): lower tumor volume
tolerability [11]: tolerated the phytol well
mode of cell death (prostate tumor cells): apoptosis, not necrosis
tumor cell death (not cytostasis) (prostate tumor cells): tumor cell death (not cytostasis) was observed
DNA ladder indicative of apoptosis (prostate tumor cells): a classic DNA ladder indicative of apoptosis has been noted
activity against the human prostate cancer cells [1]: favorable activity
IC50 [1]: 34.3 µM and 10 µg/mL
